Patent US5773431A (priority 1997, dated 1998)
pIC50: −log10 of the molar value. Structures can show the parent of a compound that is named as a salt.

What was measured:
[1] = tested on: sterol 27-hydroxylase (BAE cells); test: Sterol 27-hydroxylase activity in BAE cells (metabolites in medium by GLC-MS); format: cell-based, bovine; settings: for Proportion of C27 bile acid of total metabolite: cholesterol-supplemented medium; for Synthesis by BAE cells: amount in medium: delipidated FBS + 20 nmol/ml cholesterol
Method: (§1) Bovine aortic endothelial (BAE) cells obtained from a slaughterhouse were plated at low density (2×10^5 cells/cm^2) in 100-mm dishes and were grown to confluence in Dulbecco's modified Eagle medium (DMEM) supplemented with 10% fetal bovine serum (FBS), 50 units/ml penicillin, and 50 units/ml streptomycin at 37° C. in a 5% CO2 atmosphere. The confluent monolayer was rinsed once with Hank's balanced salt solution, and 4 ml of DMEM containing 10% […] FBS and either 20 μM cholesterol dissolved in 2-hydroxypropyl-β-cyclodextrin or an equivalent amount of vehicle alone was added to each dish. Hep G2 cells and Chinese hamster ovary cells (CHO) were cultured under identical conditions and for the same length of time. At 24-h intervals, the media and cells were harvested. The medium obtained from each dish was analyzed for metabolites. Cells were pooled for immunoblot analysis.
(§2) Following acidification and extraction into ethyl acetate, the dried residue was saponified. In some studies, solvolysis was also done prior to extraction.
(§3) Using a Hewlett-Packard GLC-MS (Model #5890-5970) and a fused silica column (CP-sil 19 CB, 0.25 mm i.d., 25 m length; Chrompack, Raritan, N.J.), the appropriate TLC fractions were injected in the splitless mode with temperature programming from 260° C. to 270° C. at 1.0° C./min and a column head pressure of 5 psi.
(§4) For the C27 acid, the ion pair that was used was m/z […] [methyl ester acetate mol ion=476-60 (acetate)] and m/z 416, and for the C24 acid, m/z 370 [mol ion methyl ester acetate=430-60 (acetate)] and m/z 373.

[2] = tested on: sterol 27-hydroxylase (Hep G2 cells); test: Sterol 27-hydroxylase activity in Hep G2 cells (metabolites in medium by GLC-MS); format: cell-based; settings: HEP G2 (n = 6), 72 h, 20 μM cholesterol; for Metabolites Derived from Sterol 27-Hydroxylase: 3βOH-5-cholen. a.: mean value of 2 dishes after solvolysis
Method: as §1, §2, §3, §4

[3] = tested on: sterol 27-hydroxylase (CHO cells); test: Sterol 27-hydroxylase activity in CHO cells (metabolites in medium by GLC-MS); format: cell-based, Chinese hamster
Method: as §1, §2, §3, §4

[4] = tested on: rabbit smooth muscle cells; test: Rabbit smooth muscle cell proliferation (formazan formation from MTS); format: cell-based; settings: 24 hr; for Optical density of wells (cell proliferation, MTS formazan): 20 μm, 5% delipidated FBS, control wells 0.402±0.037
Method: Cell proliferation at 24 hr was measured using formazan formation from MTS which is known to correlate with the number of cells present in each well.

[5] = tested on: cholesterol synthesis and accumulation; settings: cited from earlier work
[6] = tested on: intimal thickening of abdominal aorta; test: Vascular injury model: balloon-injured rabbit aorta, intimal thickening by intimal/medial (I/M) ratio; format: in vivo, New Zealand white rabbits
Method: New Zealand white rabbits weighing 2.6 to 5.1 kgs were anesthetized with intramuscular ketamine 35 mg/kg. Additional injections of ketamine (100 mg/cc) and xylazine (20 mg/cc) in a 50/50 mixture were given as necessary in 1 ml increments. Keflin (Eli Lilly & Co.), 30/mg/kg was given intravenously (IV). A longitudinal incision was made on the medial aspect of the distal hind limb to expose the greater saphenous artery. Arteriotomy was performed, and a 3-F Fogarty embolectomy catheter (Edwards Laboratories, Santa Ana, Calif.) was introduced and advanced to the level of the diaphragmatic abdominal aorta. The catheter was withdrawn from the abdominal aorta with the balloon inflated to a pressure of about 20 mm hg. This maneuver was repeated for a total of three passes. The catheter was removed, and the saphenous artery was ligated. […]
The abdominal aortas were fixed by perfusion with glutaraldehyde at physiological pressure via a catheter (14G Intracath) placed in the left ventricle. […] The entire intimal and medial areas in more than 2 sections per specimen were measured using Lucida computer calculation (Micro Brightfield, Inc.). The degree of intimal thickening was determined by calculating the intimal to medial area (I/M) ratio. Statistical significance of the difference in intimal/medial ratio between groups was calculated using student t-test. […]

[7] = tested on: smooth muscle cells derived from rat aorta; test: Proliferation of smooth muscle cells derived from rat aorta; format: cell-based, rat (male Sprague-Dawley); settings: 72 hr
Method: (§5) Smooth muscle cells were cultured according to Ross (J. Cell. Biol., 50:172, 1971) from the intima-medial layer of male Sprague-Dawley rats (200-250 g). Cells were grown in monolayers at 37° C. in a humidified atmosphere of 5% CO2 in MEM supplemented with 10% FBS, 100 U/ml penicillin, 0.1 mg/ml streptomycin, […] tricine buffer and 1% non-essential amino acid solution (Corsini et al, Atherosclerosis, 101:117, 1993). The medium was changed every third day. Cells were used between the 4th and 10th passage. Cell viability was assessed by trypan blue exclusion. Smooth muscle cells were identified for growth behavior, morphology, and using monoclonal antibody specific for α-actin, using the isoform typical for smooth muscle cells. Human vascular myocytes were taken from a human femoral artery and grown under the same culture conditions.
(§6) Smooth muscle cells derived from rat aorta were seeded at a density of 2×10^5 and those from the femoral artery at a density of 5×10^4. […] Cell proliferation was determined at 72 hr either by trypsinization of the monolayer and counting in a model ZM Coulter Counter or by incorporation of tritiated thymidine after a 3 hr incubation.

[8] = tested on: smooth muscle cells derived from human femoral artery; test: Proliferation of smooth muscle cells derived from human femoral artery; format: cell-based; settings: Human Femoral A, 72 hr, read-out: Percent of Control Growth
Method: as §5, §6

L1210 cells = test: Cell proliferation of tumor cell line L1210; format: cell-based; settings: read-out: Concentration of 27-Hydroxycholesterol Yielding 50% Growth Inhibition; L1210 cells (mouse leukemia cell line)
Source text: (§7) Conventional methods of cell culture were utilized in this experiment.

K-12 cells = test: Cell proliferation of tumor cell line K-12; format: cell-based; settings: K12, read-out: Concentration of 27-Hydroxycholesterol Yielding 50% Growth Inhibition; K-12 cells (adenocarcinoma line)
Source text: as §7

HCT-8 = test: Cell proliferation of tumor cell line HCT-8; format: cell-based; settings: read-out: Concentration of 27-Hydroxycholesterol Yielding 50% Growth Inhibition; HCT-8 (human colon carcinoma)
Source text: as §7

[9] = Nonfasted rabbits, treated
[10] = in hydroxypropyl-beta-cyclodextrin vehicle
[11] = tested on: hamster aortic smooth muscle cells; settings: six days, at the tested concentration; cited from earlier work
restenosis = settings: high doses, cited from earlier work
intimal proliferation = settings: cited from earlier work
HCT-8 cells = test: In vitro cytotoxicity test of uridyl derivative with HCT-8 cells (FIG. 1); format: cell-based, human
Source text: The results of the experimentation is illustrated in FIG. 1.

[12] = BAE (n = 6), 72 h, 20 μM cholesterol
[13] = CHO (n = 3), 72 h, 20 μM cholesterol

Compound: C[C@H](CCC(=O)O)[C@H]1CC[C@H]2[C@@H]3CC=C4C[C@@H](O)CC[C@]4(C)[C@H]3CC[C@]12C [3β-hydroxy-5-cholenoic acid]
- Metabolites Derived from Sterol 27-Hydroxylase [1, 12]: not detected
- Metabolites Derived from Sterol 27-Hydroxylase [2]: 1940 ± 270 pmol/mg/cell protein
- Metabolites Derived from Sterol 27-Hydroxylase [3, 13]: not detected
- Amount in the medium from CHO cells ([3]; compared with Hep G2 or BAE cells): small amount

Compound: CC(CCC[C@@H](C)[C@H]1CC[C@H]2[C@@H]3CC=C4C[C@@H](O)CC[C@]4(C)[C@H]3CC[C@]12C)C(=O)O (stereo partly drawn) [3β-hydroxy-5-cholestenoic acid]
- Metabolites Derived from Sterol 27-Hydroxylase [1, 12]: 474 ± 118 pmol/mg/cell protein
- Proportion of C27 bile acid of total metabolite ([1]; BAE cells, 24 h): 3.8%
- Proportion of C27 bile acid of total metabolite ([1]; BAE cells, 72 h): 17%
- Synthesis by BAE cells: amount in medium ([1]; 24 h): 42.5 ± 6.1 pmol/ml medium
- Synthesis by BAE cells: amount in medium ([1]; 48 h): 112 ± 12.4 pmol/ml medium
- Synthesis by BAE cells: amount in medium ([1]; 72 h): 211 ± 48.3 pmol/ml medium
- Metabolites Derived from Sterol 27-Hydroxylase [2]: 471 ± 126 pmol/mg/cell protein
- Metabolites Derived from Sterol 27-Hydroxylase [3, 13]: 2 ± 1 pmol/mg/cell protein
- Optical density of wells (cell proliferation, MTS formazan) [4]: 0.357±0.22

Compound: CC(CN)CCC[C@@H](C)[C@H]1CC[C@H]2[C@@H]3CC=C4C[C@@H](O)CC[C@]4(C)[C@H]3CC[C@]12C (stereo partly drawn) [27-aminocholesterol]
- Potency as inhibitor of cholesterol synthesis and accumulation relative to 27-hydroxycholesterol [5]: more potent

Compound: C[C@@H](CO)CCC[C@@H](C)[C@H]1CC[C@H]2[C@@H]3CC=C4C[C@@H](O)CC[C@]4(C)[C@H]3CC[C@]12C [27-hydroxycholesterol, cholest-5-ene-3β, 27-diol]
- Reduction of the degree of intimal thickening as compared with the control group ([6]; Run II, 14 days): 1/2
- Metabolites Derived from Sterol 27-Hydroxylase [1, 12]: 2555 ± 348 pmol/mg/cell protein
- Synthesis by BAE cells: amount in medium ([1]; 24 h): 1089 ± 111 pmol/ml medium
- Synthesis by BAE cells: amount in medium ([1]; 48 h): 1064 ± 161 pmol/ml medium
- Synthesis by BAE cells: amount in medium ([1]; 72 h): 1029 ± 99 pmol/ml medium
- Metabolites Derived from Sterol 27-Hydroxylase [2]: 1622 ± 291 pmol/mg/cell protein
- Amount present in medium from CHO cells (below the limit of detection) ([3]; 72 h, cholesterol-supplemented medium): < 10 ng per assay
- Metabolites Derived from Sterol 27-Hydroxylase [3, 13]: not detected
- Optical density of wells (cell proliferation, MTS formazan) [4]: 0.350±0.021
- Reduction of optical density compared to control wells ([4]; p<0.01): significant reduction
- activity at 1 µM ([7]; 1.0 μM, read-out: Percent of Control Growth): 90%
- activity at 5 µM ([7]; 5.0 μM, p < 0.01, read-out: Percent of Control Growth): 40%
- activity at 7.5 µM ([7]; 7.5 μM, read-out: Percent of Control Growth): 18%
- activity at 1 µM ([8]; 1.0 μM): 100%
- activity at 5 µM ([8]; 5.0 μM, p < 0.01): 53%
- pIC50 (L1210 cells): 5.92
- pIC50 (K-12 cells): 5.43
- pIC50 (HCT-8): 4.94
- Distribution of Plasma 27-Hydroxycholesterol, LDL [9]: 55%
- Viscosity of preparation [10]: very viscous
- Inhibition of proliferation [11]: about 50%

Compound: CC[C@H](C)C(=O)O[C@H]1C[C@@H](C)C=C2C=C[C@H](C)[C@H](CC[C@@H]3C[C@@H](O)CC(=O)O3)[C@H]21 [Lovastatin]
- Restenosis (restenosis; six months following percutaneous transluminal coronary angioplasty): did not decrease restenosis
- LDL-cholesterol level (restenosis): markedly decrease

Compound: Cc1ccc(C(=O)Nc2ccc(S(=O)(=O)O)c3cc(S(=O)(=O)O)cc(S(=O)(=O)O)c23)cc1NC(=O)c1cccc(NC(=O)Nc2cccc(C(=O)Nc3cc(C(=O)Nc4ccc(S(=O)(=O)O)c5cc(S(=O)(=O)O)cc(S(=O)(=O)O)c45)ccc3C)c2)c1 [Suramin, suramin, reference compound]
- Mean Intima/Media Ratio ([6]; Run I, 14-day, test group of 5 rabbits, suramin p < 0.05, 27-hydroxycholesterol 10 mg i.v. day before surgery, 5 mg day of surgery, 5 mg twice a day days 1 to 14, in 45% HPBCD): 0.4089 ± 0.034
- Inhibition of intimal proliferation (intimal proliferation): shown to inhibit intimal proliferation

Compound: CC(C)CCC[C@@H](C)[C@H]1CC[C@H]2[C@@H]3CC=C4C[C@@H](O)CC[C@]4(C)[C@H]3CC[C@]12C [cholesterol]
- Metabolites Derived from Sterol 27-Hydroxylase, Total [1, 12]: 3029 pmol/mg/cell protein
- Metabolites as percent of the cholesterol added to the medium ([1]; BAE cells, 20 nmol/ml cholesterol, 72 h): approximately 5.8%
- Metabolites Derived from Sterol 27-Hydroxylase, Total [2]: 4033 pmol/mg/cell protein
- Metabolites Derived from Sterol 27-Hydroxylase, Total [3, 13]: 2 pmol/mg/cell protein

Compound: C[C@@H](CO)CCC[C@@H](C)[C@H]1CC[C@H]2[C@@H]3CC=C4C[C@@H](OP(=O)(O)OC[C@H]5O[C@@H](n6ccc(=O)[nH]c6=O)[C@H](O)[C@@H]5O)CC[C@]4(C)[C@H]3CC[C@]12C [uridine derivative, sodium salt of 3-[(25R)-26-hydroxycholesteryl]5'-uridyl monophosphate]
- Inhibition of cell viability: death of HCT-8 cells (HCT-8 cells; 500 μM): cell death
- Percentage of viable cells (HCT-8 cells; 100 to 500 μM, after 5 days of exposure): drops dramatically
